Measured values reported in ChEMBL document CHEMBL1158150, “Inhibition of reverse transcriptase activity by benzophenanthridine alkaloids” (J Nat Prod, 1979).
The source made the active and inactive calls. No cut-off for these calls is given here.

How the values were obtained:
[1] = test system: Avian myeloblastosis virus; assay: Inhibition of AMV reverse transcriptase assessed as [3H]TTP incorporation at 5 ug by toluene-based scintillation fluid counting in presence of poly rA.oligo dT template primer
[2] = test system: Avian myeloblastosis virus; assay: Inhibition of AMV reverse transcriptase assessed as [3H]TTP incorporation at 5 ug by toluene-based scintillation fluid counting in presence of poly dA.oligo dT template primer
[3] = test system: Avian myeloblastosis virus; assay: Inhibition of AMV reverse transcriptase assessed as [3H]TTP incorporation at 5 ug by toluene-based scintillation fluid counting in presence of 2 to 20 ug poly rA.oligo dT template primer
JLS-V9 [4] = assay: Inhibition of reverse transcriptase from Rauscher murine leukemia virus propagated in JLS-V9 cells at 40 to 60 ug/ml; format: cell-based
JLS-V9 [5] = assay: Inhibition of reverse transcriptase from Rauscher murine leukemia virus propagated in JLS-V9 cells at 5 to 10 ug/ml; format: cell-based
[6] = test system: Avian myeloblastosis virus; assay: Inhibition of AMV reverse transcriptase at 50 to 60 ug/ml
[7] = test system: Avian myeloblastosis virus; assay: Inhibition of AMV reverse transcriptase assessed as [3H]TTP incorporation by toluene-based scintillation fluid counting in presence of 0.50 umole MnCl2
[8] = test system: Avian myeloblastosis virus; assay: Inhibition of AMV reverse transcriptase assessed as [3H]dGTP incorporation at 5 ug by toluene-based scintillation fluid counting in presence of poly rC.oligo dG template primer
[9] = test system: Avian myeloblastosis virus; assay: Inhibition of AMV reverse transcriptase assessed as [3H]TTP incorporation at 5 ug by toluene-based scintillation fluid counting in presence of activated DNA template primer
[10] = test system: Avian myeloblastosis virus; assay: Inhibition of AMV reverse transcriptase assessed as [3H]TTP incorporation at 5 ug by toluene-based scintillation fluid counting in presence of 70S RNA template primer
[11] = test system: Avian myeloblastosis virus; assay: Inhibition of AMV reverse transcriptase assessed as [3H]TTP incorporation by toluene-based scintillation fluid counting in presence of 0.10 umole MnCl2
[12] = test system: Avian myeloblastosis virus; assay: Inhibition of AMV reverse transcriptase at 6 to 12 ug/ml
[13] = test system: Avian myeloblastosis virus; assay: Inhibition of AMV reverse transcriptase at 30 to 40 ug/ml
[14] = test system: Avian myeloblastosis virus; assay: Inhibition of AMV reverse transcriptase assessed as [3H]TTP incorporation at 5 ug by toluene-based scintillation fluid counting in presence of template primer
[15] = test system: Avian myeloblastosis virus; assay: Inhibition of AMV reverse transcriptase assessed as [3H]TMP incorporation by toluene-based scintillation fluid counting
JLS-V9 [16] = assay: Inhibition of reverse transcriptase from MuLV propagated in JLS-V9 cells at 30 to 40 ug/ml; format: cell-based; conditions: Rauscher murine leukemia virus
JLS-V9 [17] = assay: Inhibition of reverse transcriptase from Rauscher murine leukemia virus propagated in JLS-V9 cells at 6 to 18 ug/ml; format: cell-based
[18] = test system: Avian myeloblastosis virus; assay: Inhibition of AMV reverse transcriptase at 40 to 50 ug/ml
[19] = test system: Avian myeloblastosis virus; assay: Inhibition of AMV reverse transcriptase at 45 to 50 ug/ml
[20] = test system: Avian myeloblastosis virus; assay: Inhibition of AMV reverse transcriptase at 12 to 18 ug/ml

Row | SMILES | inhibition [1] | inhibition [2] | Activity [3] | Activity (JLS-V9 [4]) | Activity (JLS-V9 [5]) | Activity [7] | inhibition [8] | inhibition [9] | inhibition [10] | Activity [11] | inhibition [13] | Activity [14] | Activity [15] | inhibition (JLS-V9 [16]) | Activity [8] | Activity (JLS-V9 [17]) | further results
1 | COc1cc2c(cc1OC)C(OC)N(C)c1c-2ccc2cc3c(cc12)OCO3.O=C(O)Br (stereo not given) | 94% | 93% | inactive | Active | Active | Active | 2% | 92% | 91% | Active | – | – | – | – | – | – | inhibition [6]: 50%
2 | COc1cc2c(ccc3c4cc(OC)c(OC)cc4c[n+](C)c23)cc1O | – | – | inactive | – | Active | Active | – | – | – | Active | > 90% | Active | Active | > 90% | Active | Active | inhibition [12]: 50%
3 | COc1cc2c[n+](C)c3c4cc5c(cc4ccc3c2cc1OC)OCO5 | – | – | inactive | Active | Active | Active | – | – | – | Active | – | Active | Active | – | Active | – | inhibition [18]: 50%
4 | COc1cc2ccc3c4cc5c(cc4c(OC)[n+](C)c3c2cc1OC)OCO5 | 95% | 94% | inactive | Active | Active | Active | 2% | 93% | 92% | Active | – | – | – | – | – | – | inhibition [19]: 50%
5 | COc1cc2ccc3c4cc(OC)c(OC)cc4c(OC)[n+](C)c3c2cc1OC | 98% | 97% | inactive | – | Active | Active | 3% | 96% | 95% | Active | > 90% | – | – | > 90% | – | Active | inhibition [20]: 50%
